Activity calls are given as the source filed them. No cut-off for these calls is given here.
Experiments:
HCC827 [1] = experiment: Induction of cell cycle arrest in human HCC827 cells assessed as accumulation of cells at G1 phase at 0.4 uM incubated for 24 hrs by PI staining based flow cytometry analysis (reference value: 66.44%); assay type: functional
[2] = Antiproliferative activity against HEK293T cells assessed as inhibition of cell growth measured after 72 hrs by MTT assay; assay type: toxicity, cell-based, HEK-293T; conditions: human
HCC827 [3] = experiment: Antitumor activity against human HCC827 cells xenografted in female nude mouse model assessed as reduction in tumor size at 5 to 10 mg/kg, ip measured every two days for 14 days; assay type: functional, organism-based; conditions: dose 5-10 mg/kg, time 14.0 day
HCC827 [4] = experiment: Antiproliferative activity against human HCC827 cells assessed as increase in cell viability at 1 uM measured after 48 hrs in presence of 3-MA by MTT assay; assay type: functional, cell-based
HCC827 [5] = experiment: Induction of mitochondrial dysfunction in human HCC827 cells assessed as reduction in glycolytic capacity at 0.125 to 5 uM incubated for 4 hrs by Seahorse XF96 extracellular flux analyzer; assay type: functional, cell-based; conditions: dose 0.125-5 µM
HCC827 [6] = experiment: Effect on UQCRC2 expression in human HCC827 cells at 0.25 to 0.5 uM incubated for 24 hrs by Western blot analysis; assay type: functional, cell-based; conditions: dose 0.25-0.5 µM
HCC827 [7] = experiment: Induction of ferroptosis in human HCC827 cells assessed as increase in MDA content incubated for 24 hrs by absorbance based analysis; assay type: functional, cell-based; conditions: dose 0.25-0.5 µM
HCC827 [8] = experiment: Antiproliferative activity against human HCC827 cells assessed as cell viability at 1 uM measured after 48 hrs in presence of ferrostatin-1 by MTT assay relative to control; assay type: functional; conditions: read-out: Activity
HCC827 [9] = experiment: Induction of cell cycle arrest in human HCC827 cells assessed as accumulation of cells at G1 phase at 0.1 uM incubated for 24 hrs by PI staining based flow cytometry analysis (reference value: 66.44%); assay type: functional
HCC827 [10] = experiment: Induction of apoptosis in human HCC827 cells assessed as viable cells at 0.25 uM measured after 48 hrs by annexin V and PI staining based flow cytometry analysis (reference value: 96.74%); assay type: functional; conditions: read-out: Activity
HCC827 [11] = experiment: Antimetastatic activity against human HCC827 cells xenografted in female nude mouse model assessed as increase in cadherin level at 5 to 10 mg/kg, ip by Western blot analysis; assay type: functional, organism-based; conditions: dose 5-10 mg/kg
HCC827 [12] = experiment: Antiproliferative activity against human HCC827 cells assessed as increase in cell viability at 1 uM measured after 48 hrs in presence of Rapa by MTT assay; assay type: functional, cell-based
HCC827 [13] = experiment: Upregulation of PINK1 level in human HCC827 cells at 0.25 to 0.5 uM measured after 24 hrs; assay type: functional, cell-based; conditions: dose 0.25-0.5 µM
HCC827 [14] = experiment: Induction of cell cycle arrest in human HCC827 cells assessed as accumulation of cells at S phase at 0.2 uM incubated for 24 hrs by PI staining based flow cytometry analysis (reference value: 26.41%); assay type: functional
[15] = system: Osimertinib-resistant NCI-H1975 cell; experiment: Antiproliferative activity against human Osimertinib-resistant NCI-H1975 cell assessed as inhibition of cell growth measured after 72 hrs by MTT assay; assay type: functional, cell-based
HCC827 [16] = experiment: Inhibition of colony formation in human HCC827 cells incubated for 72 hrs by crystal violet staining based analysis; assay type: functional, cell-based; conditions: dose 50-100 nM
HCC827 [17] = experiment: Induction of ROS generation in human HCC827 cells assessed as increase in NAD+/NADH ratio at 1 uM incubated for 4 hrs by absorbance based analysis; assay type: functional, cell-based
NCI-H1299 = experiment: Antiproliferative activity against human NCI-H1299 cells assessed as inhibition of cell growth measured after 72 hrs by MTT assay; assay type: functional, cell-based; conditions: NCI-H1299, 72 h
HCC827 [18] = experiment: Induction of cell cycle arrest in human HCC827 cells assessed as increase in p53 expression level at 0.25 to 5 uM measured after 24 hrs by Western blot analysis; assay type: functional, cell-based; conditions: dose 0.25-5 µM
HCC827 [19] = experiment: Downregulation of TOMM20 expression level in human HCC827 cells at 0.5 uM incubated for 24 hrs in presence of Baf A1 by Western blot analysis; assay type: functional, cell-based
HCC827 [20] = experiment: Induction of mitophagy in human HCC827 cells assessed as increase in LC3-II/LC-3-I ratio at 0.5 uM measured after 24 hrs by Western blot analysis; assay type: functional, cell-based
HCC827 [21] = experiment: Inhibition of cell migration in human HCC827 cells by wound healing assay; assay type: functional, cell-based; conditions: dose 0.05-0.1 µM
HCC827 [22] = experiment: Induction of mitochondrial dysfunction in human HCC827 cells assessed as cytochrome C release in cytoplasm at 0.4 uM measured after 72 hrs by laser scanning confocal fluorescence microscopic analysis; assay type: functional, cell-based
BEAS-2B = experiment: Induction of mitochondrial dysfunction in human BEAS-2B cells assessed as decrease in ATP production at 0.125 to 5 uM incubated for 4 hrs by Seahorse XF96 extracellular flux analyzer; assay type: functional, cell-based; conditions: dose 0.125-5 µM
HeLa = experiment: Induction of mitophagy in human HeLa cells harbouring mCherry-GFP tag assessed as visible mCherry fluorescence at 0.5 uM incubated for 24 hrs by confocal microscopy analysis; assay type: functional, cell-based
HCC827 [23] = experiment: Induction of cell cycle arrest in human HCC827 cells assessed as accumulation of cells at G2 phase at 0.4 uM incubated for 24 hrs by PI staining based flow cytometry analysis (reference value: 7.15%); assay type: functional
HCC827 [24] = experiment: Induction of cell cycle arrest in human HCC827 cells assessed as accumulation of cells at G1 phase incubated for 24 hrs by PI staining based flow cytometry analysis; assay type: functional; conditions: dose 0.1-0.4 µM
HCC827 [25] = experiment: Downregulation of SDHB expression in human HCC827 cells at 0.25 uM by Western blot analysis; assay type: functional, cell-based; conditions: time <= 24.0 hrs
HCC827 [26] = experiment: Induction of apoptosis in human HCC827 cells assessed as necrotic cells at 1 uM measured after 48 hrs by annexin V and PI staining based flow cytometry analysis (reference value: 1.18%); assay type: functional
HCC827 [27] = experiment: Induction of ferroptosis in human HCC827 cells assessed as decrease in glutathione reductase activity at 0.25 to 0.5 uM incubated for 24 hrs by DTNB solution based based microplate reader analysis; assay type: functional, cell-based; conditions: dose 0.25-0.5 µM
HCC827 [28] = experiment: Downregulation of VDAC1 expression level in human HCC827 cells incubated for 24 hrs by Western blot analysis; assay type: functional, cell-based; conditions: dose 0.25-5 µM
HCC827 [29] = experiment: Downregulation of TIMM23 expression level in human HCC827 cells incubated for 24 hrs by Western blot analysis; assay type: functional, cell-based; conditions: dose 0.25-0.5 µM
HCC827 [30] = experiment: Downregulation of TOMM20 expression level in human HCC827 cells at 0.5 uM by Western blot analysis; assay type: functional, cell-based; conditions: time 3-24 hrs
[31] = Drug accumulation in mitochondria of human HCC827 cells at 10 uM incubated for 5 mins; assay type: ADME; conditions: hcc827, 5 min
NCI-H1650 = experiment: Antiproliferative activity against human NCI-H1650 cells assessed as inhibition of cell growth measured after 72 hrs by MTT assay; assay type: functional, cell-based; conditions: NCI-H1650, 72 h
HCC827 [32] = experiment: Induction of apoptosis in human HCC827 cells assessed as viable cells at 1 uM measured after 36 hrs by annexin V and PI staining based flow cytometry analysis (reference value: 95.10%); assay type: functional; conditions: read-out: Activity
HCC827 [33] = experiment: Induction of apoptosis in human HCC827 cells assessed as viable cells at 1.0 uM measured after 48 hrs by annexin V and PI staining based flow cytometry analysis (reference value: 96.74%); assay type: functional; conditions: read-out: Activity

In the case of `Cc1ccc([P+](CCCCCCCCCCO)(c2ccc(C)cc2)c2ccc(C)cc2)cc1.[Br-]`, the Activity (HCC827 [1]) is reported as 85.66%, the IC50 at 72 h [2] is reported as 1520 nM and the Activity (HCC827 [3]) is reported as “Active”. For the same molecule, the Activity (HCC827 [4]) was “Active”, the Activity (HCC827 [5]) was “Active” and the Activity (HCC827 [6]) was “Active”. The Activity (HCC827 [7]) was “Dose-dependent-effect”, the viability at 1 µM (HCC827 [8]) was 51.4% and the Activity (HCC827 [9]) was 71.14%. For the same molecule, the viability at 0.25 µM (HCC827 [10]) was 92.6%, the Activity (HCC827 [11]) was “Active” and the Activity (HCC827 [12]) was “inactive”. For the same molecule, the Activity (HCC827 [13]) was “Active”, the Activity (HCC827 [14]) was 19.35% and the IC50 [15] was 230 nM. The inhibition (HCC827 [16]) was “Dose-dependent-effect”, the Activity (HCC827 [17]) was “Active” and the IC50 (NCI-H1299) was 210 nM. The Activity (HCC827 [18]) was “Active”, the Activity (HCC827 [19]) was “inactive” and the Activity (HCC827 [20]) was “Active”. The inhibition (HCC827 [21]) was “Dose-dependent-effect”, the Activity (HCC827 [22]) was “Active” and the Activity (BEAS-2B) was “Minimal_effect”. For the same molecule, the Activity (HeLa) was “Active”, the Activity (HCC827 [23]) was 4.95% and the Activity (HCC827 [24]) was “Dose-dependent-effect”. The Activity (HCC827 [25]) was “Time-dependent-effect”, the Activity (HCC827 [26]) was 2.19% and the Activity (HCC827 [27]) was “Active”. The Activity (HCC827 [28]) was “Dose-dependent-effect”, the Activity (HCC827 [29]) was “Dose-dependent-effect” and the Activity (HCC827 [30]) was “Time-dependent-effect”. It also gave a Drug uptake [31] of 93%, an IC50 (NCI-H1650) of 470 nM and a viability at 1 µM (HCC827 [32]) of 98.5%. For the same molecule, the viability at 1 µM (HCC827 [33]) was 82.8%.

Reference: ChEMBL document CHEMBL6182916, “Unexpected Discovery of a Novel Triphenylphosphonium Alkylalcohol That Triggers Cancer Cell Death via Mitophagy and Ferroptosis” (J Med Chem, 2025)
